Measurements published in ChEMBL document CHEMBL5042473 (J Med Chem, 2022).

What was measured:
Splenocyte [1] = test: Antiinflammatory activity against LPS-stimulated Balb/c mouse splenocytes assessed as reduction in IL-6 at 1 nM incubated for 24 hrs by ELISA based method; assay type: functional; set-up: scale not given: the % may be the effect or the level left
CYP3A4 = CYP3A4 (Homo sapiens, UniProt P08684); test: Inhibition of human recombinant CYP3A4 at 10 uM relative to control; assay type: ADME
[2] = Ratio of drug concentration in mouse C57BL/6 brain to plasma at 0.4 mg/kg, po measured at 2 hrs by LC-MS/MS analysis; assay type: ADME, organism-based; conditions: C57BL/6, mouse, brain and plasma
Splenocyte [3] = test: Antiinflammatory activity against LPS-stimulated Balb/c mouse splenocytes assessed as reduction in IL-6 at 100 nM incubated for 24 hrs by ELISA based method; assay type: functional; set-up: scale not given: the % may be the effect or the level left
Splenocyte [4] = test: Cytotoxicity against Balb/c mouse splenocytes assessed as metabolic activity at 1 to 10 nM incubated for 24 hrs by MTT assay; assay type: toxicity, cell-based; conditions: 0.01 µM, dose 1-10 nM
[5] = Drug concentration in mouse C57BL/6 brain at 0.4 mg/kg,po measured at 2 hrs by LC-MS/MS analysis; assay type: ADME, organism-based; conditions: C57BL/6, mouse, read-out: Drug uptake
[6] = Drug concentration in mouse C57BL/6 brain at 0.4 mg/kg,po measured at 4 hrs by LC-MS/MS analysis; assay type: ADME, organism-based; conditions: C57BL/6, mouse, read-out: Drug uptake
CYP2D6 = CYP2D6 (Homo sapiens, UniProt P10635); test: Inhibition of human recombinant CYP2D6 at 10 uM relative to control; assay type: ADME
CYP2C19 = CYP2C19 (Homo sapiens, UniProt P33261); test: Inhibition of human recombinant CYP2C19 at 10 uM relative to control; assay type: ADME
[7] = Drug concentration in mouse C57BL/6 kidney at 0.4 mg/kg,po measured at 4 hrs by LC-MS/MS analysis; assay type: ADME, organism-based; conditions: C57BL/6, mouse, read-out: Drug uptake
CYP2C9 = CYP2C9 (Homo sapiens, UniProt P11712); test: Inhibition of human recombinant CYP2C9 at 10 uM relative to control; assay type: ADME
[8] = Drug concentration in mouse C57BL/6 heart at 0.4 mg/kg,po measured at 4 hrs by LC-MS/MS analysis; assay type: ADME, organism-based; conditions: C57BL/6, mouse, read-out: Drug uptake
[9] = Cytotoxicity against Balb/c mouse splenocytes assessed as metabolic activity at 100 nM incubated for 24 hrs by MTT assay relative to LPS-stimulated splenocytes; assay type: toxicity, cell-based, Splenocyte; conditions: read-out: Activity
Blood [10] = test: Antiinflammatory activity against LPS-stimulated C57BL/6 mouse whole blood assessed as reduction in TNF-alpha at 1 nM incubated for 24 hrs by ELISA based method; assay type: functional; set-up: scale not given: the % may be the effect or the level left
[11] = target: Mitogen-activated protein kinase 14 (Homo sapiens, UniProt Q16539); test: Inhibition of human p38 MAPK alpha incubated for 1 hr by photometric method
CYP1A2 = target: T1, CYP1A2 (Homo sapiens, UniProt P05177); test: Inhibition of human recombinant CYP1A2 at 10 uM relative to control; assay type: ADME
T1 sequence (P05177 whole entry): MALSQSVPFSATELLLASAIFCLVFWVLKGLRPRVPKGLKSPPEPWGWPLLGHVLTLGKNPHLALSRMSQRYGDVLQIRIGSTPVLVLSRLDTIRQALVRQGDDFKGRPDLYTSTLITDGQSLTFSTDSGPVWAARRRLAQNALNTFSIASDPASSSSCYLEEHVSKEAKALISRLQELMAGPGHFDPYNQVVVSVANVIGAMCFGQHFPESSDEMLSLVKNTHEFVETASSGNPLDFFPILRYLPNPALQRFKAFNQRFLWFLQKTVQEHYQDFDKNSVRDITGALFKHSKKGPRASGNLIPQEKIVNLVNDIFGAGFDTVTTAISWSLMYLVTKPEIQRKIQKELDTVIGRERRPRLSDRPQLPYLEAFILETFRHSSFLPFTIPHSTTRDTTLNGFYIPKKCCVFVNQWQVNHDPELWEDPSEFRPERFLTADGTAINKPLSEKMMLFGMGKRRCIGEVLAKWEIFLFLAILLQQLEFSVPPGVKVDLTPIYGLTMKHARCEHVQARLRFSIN

[12] = Metabolic stability in human liver microsomes assessed as parent compound remaining incubated for 120 mins; assay type: ADME, Microsome; conditions: read-out: Stability
hERG = hERG (Homo sapiens, UniProt Q12809); test: Inhibition of hERG at 10 uM by fluorimetric analysis relative to control; assay type: toxicity
[13] = Drug concentration in mouse C57BL/6 liver at 0.4 mg/kg,po measured at 4 hrs by LC-MS/MS analysis; assay type: ADME, organism-based; conditions: C57BL/6, mouse, read-out: Drug uptake
Splenocyte [14] = test: Antiinflammatory activity against LPS-stimulated Balb/c mouse splenocytes assessed as reduction in IL-6 at 10 nM incubated for 24 hrs by ELISA based method; assay type: functional; set-up: scale not given: the % may be the effect or the level left
[15] = Drug uptake in RjOrl:Swiss (CD-1) mouse brain at 10 mg/kg, iv administered measured after 2 hrs by LC-MS/MS analysis; assay type: ADME, organism-based; conditions: read-out: Ct
[16] = Ratio of drug concentration in RjOrl:Swiss (CD-1) mouse brain to plasma at 10mg/kg, iv administered measured after 2 hrs by LC-MS/MS analysis; assay type: ADME, organism-based; conditions: brain and plasma, read-out: BPR
Blood [17] = test: Antiinflammatory activity against LPS-stimulated C57BL/6 mouse whole blood assessed as reduction in IL-6 incubated for 24 hrs by ELISA based method; assay type: functional; set-up: scale not given: the % may be the effect or the level left; conditions: dose 1-100 nM, at 1 to 100 nM
Blood [18] = test: Antiinflammatory activity against LPS-stimulated C57BL/6 mouse whole blood assessed as reduction in TNF-alpha at 10 nM incubated for 24 hrs by ELISA based method; assay type: functional; conditions: C57BL/6, Blood
Blood [19] = test: Reduction in LPS-stimulated TNF-alpha release in human whole blood incubated for 15 mins by ELISA based method; conditions: 0.25 h
[20] = Drug concentration in mouse C57BL/6 brain at 0.4 mg/kg,iv measured at 2 hrs by LC-MS/MS analysis; assay type: ADME, organism-based; conditions: C57BL/6, mouse, read-out: Drug uptake
[21] = Drug uptake in mouse C57BL/6 brain at 0.4 mg/kg,po measured upto 240 mins by LC-MS/MS analysis; assay type: ADME, organism-based; conditions: in vivo, 4 h
[22] = Drug uptake in mouse C57BL/6 brain at 0.4 mg/kg,iv measured upto 240 mins by LC-MS/MS analysis; assay type: ADME, organism-based; conditions: in vivo, 4 h
[23] = Drug concentration in rat brain at 6 mg/kg, iv measured after 24 hrs by LC/MS/MS analysis; conditions: in vivo
[24] = Drug concentration in rat plasma at 6 mg/kg, iv measured after 24 hrs by LC/MS/MS analysis
[25] = Drug concentration in rat plasma at 4.5 mg/kg, po measured after 1 hrs by LC/MS/MS analysis; assay type: ADME, organism-based
[26] = Ratio of drug concentration in rat brain to plasma; conditions: brain and plasma
[27] = Drug concentration in rat brain at 4.5 mg/kg, po measured after 1 hrs by LC/MS/MS analysis; assay type: ADME, organism-based; conditions: in vivo
[28] = Drug concentration in rat brain at 1.5 mg/kg, po measured after 1 hrs by LC/MS/MS analysis; assay type: ADME, organism-based; conditions: in vivo
[29] = Drug concentration in rat plasma at 1.5 mg/kg, po measured after 1 hrs by LC/MS/MS analysis; assay type: ADME, organism-based

Chain of CYP2D6 (P10635 whole entry): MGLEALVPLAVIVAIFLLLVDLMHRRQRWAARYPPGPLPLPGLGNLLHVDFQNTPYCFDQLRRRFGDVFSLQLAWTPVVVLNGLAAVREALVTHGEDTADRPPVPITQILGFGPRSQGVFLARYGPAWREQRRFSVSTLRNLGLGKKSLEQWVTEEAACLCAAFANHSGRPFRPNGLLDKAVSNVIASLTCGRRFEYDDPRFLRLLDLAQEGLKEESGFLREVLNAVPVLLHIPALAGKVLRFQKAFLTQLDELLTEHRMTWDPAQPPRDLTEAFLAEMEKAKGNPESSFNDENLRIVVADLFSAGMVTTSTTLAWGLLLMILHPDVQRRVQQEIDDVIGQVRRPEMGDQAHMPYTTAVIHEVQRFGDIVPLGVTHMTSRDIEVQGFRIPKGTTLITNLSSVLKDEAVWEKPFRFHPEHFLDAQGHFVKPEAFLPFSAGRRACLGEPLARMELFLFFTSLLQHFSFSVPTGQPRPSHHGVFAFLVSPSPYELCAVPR
Chain of CYP3A4 (P08684 whole entry): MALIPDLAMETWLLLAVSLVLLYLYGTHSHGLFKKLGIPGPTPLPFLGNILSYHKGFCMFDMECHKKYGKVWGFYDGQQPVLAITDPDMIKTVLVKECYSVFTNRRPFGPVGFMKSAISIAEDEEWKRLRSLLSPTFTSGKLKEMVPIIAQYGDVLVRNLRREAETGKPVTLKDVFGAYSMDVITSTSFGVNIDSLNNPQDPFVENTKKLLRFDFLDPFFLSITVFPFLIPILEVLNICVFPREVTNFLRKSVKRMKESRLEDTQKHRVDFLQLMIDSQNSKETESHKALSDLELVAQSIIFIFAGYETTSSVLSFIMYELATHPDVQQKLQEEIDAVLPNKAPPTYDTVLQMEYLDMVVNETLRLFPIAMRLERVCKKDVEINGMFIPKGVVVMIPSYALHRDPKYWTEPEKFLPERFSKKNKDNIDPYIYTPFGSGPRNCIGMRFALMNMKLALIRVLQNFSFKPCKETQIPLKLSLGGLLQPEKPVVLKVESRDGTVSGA
Chain of CYP2C19 (P33261 whole entry): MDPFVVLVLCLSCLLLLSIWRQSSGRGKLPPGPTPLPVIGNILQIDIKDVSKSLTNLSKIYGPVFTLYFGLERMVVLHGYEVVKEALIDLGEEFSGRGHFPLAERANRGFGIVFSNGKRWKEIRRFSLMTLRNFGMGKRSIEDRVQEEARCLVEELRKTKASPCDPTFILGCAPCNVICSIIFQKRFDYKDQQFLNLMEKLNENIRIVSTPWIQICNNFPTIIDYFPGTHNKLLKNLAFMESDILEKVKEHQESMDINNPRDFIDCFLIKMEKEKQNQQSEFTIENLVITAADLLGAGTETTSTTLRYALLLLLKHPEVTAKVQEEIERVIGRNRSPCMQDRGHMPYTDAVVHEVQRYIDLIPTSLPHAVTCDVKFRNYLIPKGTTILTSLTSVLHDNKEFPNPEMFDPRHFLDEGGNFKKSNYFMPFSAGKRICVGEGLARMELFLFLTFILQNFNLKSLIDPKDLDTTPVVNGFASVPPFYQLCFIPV
Chain of CYP2C9 (P11712 whole entry): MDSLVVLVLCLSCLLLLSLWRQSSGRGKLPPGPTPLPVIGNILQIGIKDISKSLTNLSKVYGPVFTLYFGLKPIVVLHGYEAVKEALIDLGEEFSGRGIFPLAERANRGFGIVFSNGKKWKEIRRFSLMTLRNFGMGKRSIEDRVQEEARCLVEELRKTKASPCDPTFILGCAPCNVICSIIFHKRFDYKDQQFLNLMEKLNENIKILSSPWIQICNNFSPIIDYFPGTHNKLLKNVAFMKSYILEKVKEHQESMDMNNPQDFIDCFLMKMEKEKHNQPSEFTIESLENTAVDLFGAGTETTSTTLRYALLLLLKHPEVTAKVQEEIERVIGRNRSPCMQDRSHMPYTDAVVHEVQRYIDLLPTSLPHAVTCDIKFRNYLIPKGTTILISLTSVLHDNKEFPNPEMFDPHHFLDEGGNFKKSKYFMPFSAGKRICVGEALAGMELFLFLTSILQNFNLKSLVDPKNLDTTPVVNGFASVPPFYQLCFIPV
Chain of Mitogen-activated protein kinase 14 (Q16539 whole entry): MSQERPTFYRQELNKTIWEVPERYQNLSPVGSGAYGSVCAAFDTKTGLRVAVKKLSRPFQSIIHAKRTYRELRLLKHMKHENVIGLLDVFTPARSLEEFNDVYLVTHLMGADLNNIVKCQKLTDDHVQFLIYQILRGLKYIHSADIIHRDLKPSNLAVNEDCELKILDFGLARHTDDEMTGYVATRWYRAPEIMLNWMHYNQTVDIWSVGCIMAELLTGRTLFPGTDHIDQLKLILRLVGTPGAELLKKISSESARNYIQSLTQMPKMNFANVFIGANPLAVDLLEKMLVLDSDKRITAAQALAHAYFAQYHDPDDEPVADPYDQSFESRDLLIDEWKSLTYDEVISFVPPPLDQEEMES
Chain of hERG (Q12809 whole entry): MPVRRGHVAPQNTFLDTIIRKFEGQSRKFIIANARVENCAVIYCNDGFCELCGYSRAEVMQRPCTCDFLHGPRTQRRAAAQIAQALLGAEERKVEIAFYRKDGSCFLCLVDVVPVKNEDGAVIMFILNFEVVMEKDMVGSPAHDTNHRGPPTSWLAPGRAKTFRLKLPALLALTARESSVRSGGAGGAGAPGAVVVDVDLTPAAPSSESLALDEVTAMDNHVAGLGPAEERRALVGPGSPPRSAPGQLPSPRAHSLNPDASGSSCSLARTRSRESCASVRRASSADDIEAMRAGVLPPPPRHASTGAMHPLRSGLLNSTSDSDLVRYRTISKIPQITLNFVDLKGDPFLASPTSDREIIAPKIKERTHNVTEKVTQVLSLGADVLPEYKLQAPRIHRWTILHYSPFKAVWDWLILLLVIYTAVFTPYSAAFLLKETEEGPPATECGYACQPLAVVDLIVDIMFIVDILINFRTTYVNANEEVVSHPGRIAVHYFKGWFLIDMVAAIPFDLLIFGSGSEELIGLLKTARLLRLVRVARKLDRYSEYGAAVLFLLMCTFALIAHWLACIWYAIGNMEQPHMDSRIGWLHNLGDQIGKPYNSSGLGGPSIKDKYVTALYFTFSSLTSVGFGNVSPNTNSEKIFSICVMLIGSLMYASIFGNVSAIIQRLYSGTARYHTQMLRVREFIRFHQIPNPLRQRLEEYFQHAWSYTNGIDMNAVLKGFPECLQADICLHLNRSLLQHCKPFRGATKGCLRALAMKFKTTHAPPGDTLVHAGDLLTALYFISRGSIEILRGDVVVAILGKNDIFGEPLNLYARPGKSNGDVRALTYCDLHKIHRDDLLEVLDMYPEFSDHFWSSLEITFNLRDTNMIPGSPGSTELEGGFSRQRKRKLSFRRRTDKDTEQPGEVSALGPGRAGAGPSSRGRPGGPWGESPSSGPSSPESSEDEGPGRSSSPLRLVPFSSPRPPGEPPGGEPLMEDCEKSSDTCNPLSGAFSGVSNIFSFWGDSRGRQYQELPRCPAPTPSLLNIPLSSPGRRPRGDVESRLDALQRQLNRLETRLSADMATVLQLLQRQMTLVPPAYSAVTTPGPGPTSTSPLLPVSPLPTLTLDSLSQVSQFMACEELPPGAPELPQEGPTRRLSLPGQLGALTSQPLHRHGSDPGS

SMILES | inhibition at 10 µM (CYP3A4) [%] | Activity (Splenocyte [4]) | inhibition at 10 µM (CYP2D6) [%] | inhibition at 10 µM (CYP2C19) [%] | inhibition at 10 µM (CYP2C9) [%] | viability at 24 h, 0.1 µM [9] [%] | Activity (Blood [10]) [%] | IC50 [11] [nM] | inhibition at 10 µM (CYP1A2) [%] | remaining at 2 h [12] [%] | inhibition at 10 µM (hERG) [%] | Activity (Blood [17]) [%] | inhibition at 0.01 µM (Blood [18]) [%] | other results
Nc1ccccc1Nc1ccc2c(c1)CCc1ccc(C(=O)NCCC(=O)O)cc1C2=O | 4.1 | Non-Toxic | 11.4 | 21.8 | 13.1 | 66 | 5 | 0.98 | 28.1 | 99 | 22.5 | – | – | Activity (Splenocyte [1]): 138%; Kp at 2 h [2]: 4.7; Activity (Splenocyte [3]): 29%; concentration at 2 h [5]: 590 nM; concentration at 4 h [6]: 540 nM; concentration at 4 h [7]: 380 nM; concentration at 4 h [8]: 120 nM; concentration at 4 h [13]: 330 nM; Activity (Splenocyte [14]): 118%
O=C(O)CCNC(=O)c1ccc2c(c1)C(=O)c1ccc(Nc3ccc(F)cc3F)cc1CC2 | 54.8 | Non-Toxic | 3 | 100 | 98.5 | 66 | 5 | 5.5 | 33.6 | 97 | 11.8 | – | – | concentration at 2 h [15]: 103 ng/g; Kp at 2 h [16]: 1.25
COC(=O)CCNC(=O)c1ccc2c(c1)C(=O)c1ccc(Nc3ccc(F)cc3F)cc1CC2 | 68 | Non-Toxic | 73.7 | 100 | 99.4 | 66 | – | 1.2 | 27.3 | 0 | 59.9 | 85 | 50 | –
O=C(O)CCCNC(=O)c1ccc2c(c1)C(=O)c1ccc(Nc3ccc(F)cc3F)cc1CC2 | 38.1 | Non-Toxic | 2 | 63.2 | 66 | 66 | – | 12 | 16.2 | 99 | 14.4 | 71 | 50 | concentration at 2 h [15]: 98.2 ng/g; Kp at 2 h [16]: 4.38
COC(=O)CCCNC(=O)c1ccc2c(c1)C(=O)c1ccc(Nc3ccc(F)cc3F)cc1CC2 | 34.9 | Non-Toxic | 3 | 60.4 | 68.4 | 66 | – | 3.4 | 11.6 | – | 49.7 | 64 | 50 | IC50 (Blood [19]): 64 nM
COC(=O)CCNC(=O)c1ccc2c(c1)C(=O)c1ccc(Nc3ccccc3N)cc1CC2 | – | Non-Toxic | – | – | – | 66 | – | 29 | – | – | – | 81 | 50 | –
CNC(=O)c1ccc2c(c1)C(=O)c1ccc(Nc3ccccc3N)cc1CC2 | – | Non-Toxic | – | – | – | 66 | – | 5.7 | – | 3 | – | – | – | concentration at 2 h [5]: 20 nM; concentration at 2 h [20]: 20 nM
O=C(Nc1ccccc1)c1ccc2c(c1)C(=O)c1ccc(Nc3ccc(F)cc3F)cc1CC2 | – | Non-Toxic | – | – | – | 66 | 5 | 2.4 | – | – | – | – | – | Activity (Splenocyte [3]): 51%; Drug uptake [21]: Not Active; Drug uptake [22]: Not Active
CN1CCN(c2cc(-c3ccncc3)c(-c3ccc4ccccc4c3)nn2)CC1 [MW-150] | – | – | – | – | – | – | – | – | – | – | – | – | – | Ct [23]: 1030 nmol/kg; concentration at 24 h [24]: 390 ng/mL
O=c1ncn2nc(Sc3ccc(F)cc3F)ccc2c1-c1c(Cl)cccc1Cl [NEFLAMAPIMOD] | – | – | – | – | – | – | – | – | – | – | – | – | – | concentration at 1 h [25]: 92 ng/mL; Kp [26]: 1.7; Ct [27]: 359 nmol/kg; Ct [28]: 129 nmol/kg; concentration at 1 h [29]: 33 ng/mL
